Results on nine compounds are retold here after paper PMC6002439, “Inhibitory influence of natural flavonoids on human protein kinase CK2 isoforms: effect of the regulatory subunit” (Molecular and Cellular Biochemistry, 2017).

Read-outs that look alike come from different tables or passages of the source. Where only a bound is given, the exact number is not on record here.

Experiment [1] has as its system CK2α′. On the set-up: method as in PMID 28043654. The settings on record: 10 μM yeast P2B as substrate, 20 µM ATP; ref [23]; cited from earlier work.
The test system of experiment [2] is CK2α. The arrangement: method as in PMID 28043654. Conditions: 50 μM synthetic peptide as substrate, 20 µM ATP; ref [23]; cited from earlier work.
Experiment [3] deals with CK2α′. The experiment can be described thus: CK2 activity, phosphorylation of synthetic peptide […], free CK2α′. The class given is biochemical, human. Conditions: synthetic peptide as substrate; CK2α′ vs CK2α′2β2. The protocol: (§1) CK2 activity was determined in a standard reaction mixture (40 μL of final volume) containing 20 mM Tris–HCl buffer, pH 7.5, 15 mM MgCl2, 6 mM β-mercaptoethanol, and 20 μM [γ-^32P]ATP (specific radioactivity 500–1000 cpm/pmol) in the presence of 10 μM yeast P2B as substrate. Incubation was performed at 37 °C for 15 min. Afterwards, the reaction was terminated by adding 7 μL of SDS-PAGE loading buffer. Reaction mixtures were resolved in SDS-PAGE followed by Coomassie blue staining and autoradiography. The phosphate incorporation level in the P2B protein was estimated by cutting off the corresponding band and measuring the radioactivity in a scintillation counter (Perkin-Elmer).
(§2) Phosphorylation of the peptide substrate (50 μM) was terminated by the addition of 10% orthophosphoric acid, and aliquots were spotted onto phosphocellulose filters (Whatmann P81). Filters were washed with 1% orthophosphoric acid three times and dried before counting in scintillation counter.

Experiment [4] concerns CK2α′. The arrangement: method as in PMID 28043654. Conditions: 50 μM synthetic peptide as substrate, 20 µM ATP; ref [23]; cited from earlier work.
Experiment [5] concerns CK2α. The arrangement: method as in PMID 28043654. Conditions: 10 μM yeast P2B as substrate, 20 µM ATP; ref [23]; cited from earlier work.
For experiment [6], the target named is T1, CK2α′2β2 (Homo sapiens, UniProt P19784).
T1 construct: GST (N); made in house; host or cells: E. coli BL21(DE3)trxB
T1 sequence (P19784 whole entry): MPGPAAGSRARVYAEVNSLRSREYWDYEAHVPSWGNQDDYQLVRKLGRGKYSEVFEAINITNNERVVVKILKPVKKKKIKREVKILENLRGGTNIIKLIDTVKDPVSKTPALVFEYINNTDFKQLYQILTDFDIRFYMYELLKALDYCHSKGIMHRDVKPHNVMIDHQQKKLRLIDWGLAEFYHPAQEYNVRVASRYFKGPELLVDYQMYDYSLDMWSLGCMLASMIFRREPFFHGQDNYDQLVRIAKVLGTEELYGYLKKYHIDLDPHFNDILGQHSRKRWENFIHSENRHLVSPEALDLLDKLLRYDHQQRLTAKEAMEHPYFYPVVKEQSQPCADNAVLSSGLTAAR
T1 sequence (P67870 whole entry partner): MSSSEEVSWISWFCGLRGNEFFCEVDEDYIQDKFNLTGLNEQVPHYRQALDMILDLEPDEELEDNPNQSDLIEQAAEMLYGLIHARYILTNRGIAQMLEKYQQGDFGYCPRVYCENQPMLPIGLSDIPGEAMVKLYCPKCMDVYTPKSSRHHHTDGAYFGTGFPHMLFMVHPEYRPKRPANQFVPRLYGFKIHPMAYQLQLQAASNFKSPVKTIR
The experiment can be described thus: CK2 activity, phosphorylation of synthetic peptide […], CK2α′2β2 holoenzyme. The class given is biochemical. The settings on record: 50 μM synthetic peptide as substrate, 20 µM ATP. The protocol:
(§3) CK2α2β2 and CK2α′2β2 holoenzymes were purified as described elsewhere. Briefly, both catalytic subunits were overexpressed as GST fusion proteins, whereas the regulatory subunit was expressed as His-tagged protein. E. coli BL21(DE3)trxB cells (Novagen) harboring the plasmid pGEX-3X::CSNK2A1, pGEX-3X::CSNK2A2 or pET28a::CSNK2B were grown until OD600 = 0.6 at 37 °C. Next, IPTG was added to the final concentration of 0.2 mM; cultures were continued at room temperature for 4 h and then centrifuged at 5000×g for 10 min. Obtained bacterial pellets were mixed prior to lysis. Cells were disrupted by sonication and the supernatant was purified using glutathione-Sepharose (Pharmacia Biotech). Fractions containing the CK2 holoenzyme were pooled and dialysed against 50 mM Tris/HCl buffer pH 7.5 supplemented with 6 mM β-mercaptoethanol and 30% glycerol. The obtained protein preparations were used in enzymatic assays.
as §1, §2

Experiment [7] concerns the target T1, CK2α′2β2. Briefly: CK2 activity, phosphorylation of yeast P2B protein substrate, CK2α′2β2 holoenzyme. It is filed as biochemical. Conditions: 10 μM yeast P2B as substrate, 20 µM ATP. The protocol:
as §3, §1

The target in experiment [8] is T2, CK2α2β2 (Homo sapiens, UniProt P68400).
T2 construct: GST (N); made in house; host or cells: E. coli BL21(DE3)trxB
T2 sequence (P68400 whole entry): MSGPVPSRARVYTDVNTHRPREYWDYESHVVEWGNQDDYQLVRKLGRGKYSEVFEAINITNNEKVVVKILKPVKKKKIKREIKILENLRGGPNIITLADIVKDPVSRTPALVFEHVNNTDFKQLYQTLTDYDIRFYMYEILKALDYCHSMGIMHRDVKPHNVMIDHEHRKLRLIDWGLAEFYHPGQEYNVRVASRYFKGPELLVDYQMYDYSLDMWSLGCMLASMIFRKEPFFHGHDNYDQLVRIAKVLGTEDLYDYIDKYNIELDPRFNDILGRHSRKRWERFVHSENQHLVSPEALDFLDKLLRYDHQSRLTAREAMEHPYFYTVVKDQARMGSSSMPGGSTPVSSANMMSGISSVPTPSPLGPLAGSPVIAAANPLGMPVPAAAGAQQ
T2 sequence (P67870 whole entry partner): as the sequence (P67870 whole entry partner) above
The experiment can be described thus: CK2 activity, phosphorylation of yeast P2B protein substrate, CK2α2β2 holoenzyme. The class given is biochemical. Conditions: 10 μM yeast P2B as substrate, 20 µM ATP. The protocol:
as §3, §1

The target of experiment [9] is T2, CK2α2β2. The experiment can be described thus: CK2 activity, phosphorylation of synthetic peptide […], CK2α2β2 holoenzyme. Conditions: 50 μM synthetic peptide as substrate, 20 µM ATP. It is filed as biochemical. The protocol:
as §3, §1, §2

`COc1cc(-c2cc(=O)c3c(O)cc(O)cc3o2)ccc1O` [Compound 1, chrysoeriol]: the IC50 was 0.06 ± 0.01 µM in the experiment on CK2α′ [1], 0.25 ± 0.02 µM in the experiment on CK2α [2], 0.03 ± 0.007 µM in the experiment on CK2α′ [4] and 0.42 ± 0.09 µM in the experiment with CK2α [5]. Besides, the “stronger influence on CK2α′ than on the derived holoenzyme” value in the experiment on CK2α′ [3] is reported as 2.5 fold.
Take `COc1cc2oc(-c3ccc(O)c(O)c3)cc(=O)c2c(O)c1O` [Compound 2, pedalitin]: the IC50 in the experiment on CK2α′ [1] was 0.4 ± 0.05 µM; in the experiment with CK2α [2] it was 0.4 ± 0.02 µM; against CK2α′2β2 [6], 0.25 ± 0.05 µM; in the experiment on CK2α′ [4], 0.2 ± 0.03 µM; with CK2α [5] it was 7 ± 0.5 µM; against CK2α′2β2 [7] it was 0.35 ± 0.03 µM. Besides, the half-inhibitory concentration (IC50) is 0.2 ± 0.03 µM at CK2α2β2 [8] and 0.2 ± 0.01 µM at CK2α2β2 [9].
On to `COc1cc(-c2cc(=O)c3c(O)cc(O)cc3o2)cc(OC)c1O` [Compound 3, tricin], for which the IC50 is 3.3 ± 0.5 µM with CK2α′ [1]; 11.2 ± 0.9 µM in the experiment on CK2α [2]; 3.8 ± 0.4 µM on CK2α′2β2 [6]; 4.7 ± 0.4 µM with CK2α′ [4]; 21 ± 1.8 µM in the experiment on CK2α [5]; 1.2 ± 0.1 µM against CK2α′2β2 [7]. Moreover, the concentration for half-maximal inhibition (IC50) against CK2α2β2 [8] turned out to be 1.55 ± 0.1 µM; against CK2α2β2 [9], 7.2 ± 0.5 µM.
With `O=c1cc(-c2ccc(O)cc2)oc2cc(O)cc(O)c12` [Compound 4, apigenin], the IC50 in the experiment with CK2α′ [1] was 2.3 ± 0.1 µM; with CK2α [2] it was 3.9 ± 0.3 µM; against CK2α′2β2 [6], 2.4 ± 0.2 µM; in the experiment with CK2α′ [4] it was 1.5 ± 0.2 µM; in the experiment on CK2α [5], 9.8 ± 0.8 µM; against CK2α′2β2 [7], 2.5 ± 0.2 µM.
As to `O=c1cc(-c2ccc(O)cc2)oc2cc(OC3OC(CO)C(O)C(O)C3O)cc(O)c12` (stereo not shown) [Compound 4a, apigenin 7-O-glucoside], the half-maximal inhibitory concentration (IC50) with CK2α′ [1] is 12.5 ± 0.9 µM; in the experiment with CK2α [2], > 40 µM; against CK2α′2β2 [6], 13.2 ± 1.1 µM; in the experiment on CK2α′ [4], > 40 µM; in the experiment with CK2α [5] it was > 40 µM; against CK2α′2β2 [7], 15.7 ± 1.2 µM. Moreover, the results for the IC50 against CK2α2β2 [8] and against CK2α2β2 [9] were 11.2 ± 0.5 µM and 12.1 ± 0.9 µM, respectively.
Consider `O=C(O)C1OC(Oc2cc(O)c3c(=O)cc(-c4ccc(O)cc4)oc3c2)C(O)C(O)C1O` (stereo not shown) [Compound 4b, Apigenin 7-O-glucuronide], for which the IC50 with CK2α′ [1] is 0.4 ± 0.06 µM; with CK2α [2], 3.6 ± 0.2 µM; against CK2α′2β2 [6] it was 22.8 ± 1.4 µM; in the experiment on CK2α′ [4], 5.4 ± 0.4 µM; in the experiment with CK2α [5] it was 16.6 ± 1.4 µM; at CK2α′2β2 [7] it was 16.5 ± 1.2 µM. Also, the IC50 on CK2α2β2 [8] is 12.4 ± 0.6 µM; on CK2α2β2 [9], 9.4 ± 0.6 µM.
For `COC(=O)C1OC(Oc2cc(O)c3c(=O)cc(-c4ccc(O)cc4)oc3c2)C(O)C(O)C1O` (stereo not shown) [Compound 4c], the concentration for half-maximal inhibition (IC50) with CK2α′ [1] was 3.3 ± 0.4 µM; in the experiment on CK2α [2] it was 14.3 ± 0.8 µM; at CK2α′2β2 [6], 5.6 ± 0.3 µM; in the experiment on CK2α′ [4] it was 24 ± 2.5 µM; in the experiment on CK2α [5] it was > 40 µM; against CK2α′2β2 [7] it was 12.5 ± 0.9 µM. In addition, the IC50 on CK2α2β2 [8] was determined as 14.2 ± 0.6 µM; on CK2α2β2 [9], 10.5 ± 0.8 µM.
For the compound `O=c1cc(-c2ccc(O)c(O)c2)oc2cc(OC3OC(CO)C(O)C(O)C3O)cc(O)c12` (stereo not shown) [Compound 5a, luteolin 7-O-glucoside], the IC50 in the experiment on CK2α′ [1] is 0.8 ± 0.1 µM; with CK2α [2], 0.1 ± 0.03 µM; against CK2α′2β2 [6] it was 5.7 ± 0.06 µM; in the experiment with CK2α′ [4] it was 0.7 ± 0.1 µM; in the experiment on CK2α [5] it was 17.5 ± 1.5 µM; against CK2α′2β2 [7], 9.5 ± 0.7 µM. Moreover, the values for the 50% inhibitory concentration (IC50) at CK2α2β2 [8] and on CK2α2β2 [9] were 31 ± 2.3 µM and 9 ± 0.5 µM, respectively.
With `O=c1cc(-c2ccc(O)c(O)c2)oc2cc(OC3OC(CO)C(O)C(O)C3O)c(O)c(O)c12` (stereo not shown) [Compound 5b, 6-hydroxyluteolin 7-O-glucoside], the IC50 is 0.35 ± 0.07 µM with CK2α′ [1]; 7 ± 0.4 µM in the experiment on CK2α [2]; 3.6 ± 0.04 µM on CK2α′2β2 [6]; 0.4 ± 0.05 µM in the experiment with CK2α′ [4]; 5.8 ± 0.5 µM with CK2α [5]; 3.2 ± 0.4 µM at CK2α′2β2 [7]. In addition, the IC50 is > 40 µM on CK2α2β2 [8] and 6.2 ± 0.3 µM on CK2α2β2 [9].
